Results published in patent publication US6676932B2, “Ultraviolet absorbent, photostabilizer, ultraviolet ray-absorbing composition, photostabilized composition and external preparation for skin” (Shiseido Co., Ltd., priority 2001, dated 2004).

Assays:
Assay type in all cases: physicochemical
[1] = Dye stabilization effect in blend with sequestering agents (Test Examples 212 to 275); details: daylight exposure (80 MJ)
Description: Each test sample was prepared for observation of the change of the appearance of each test sample (determined visually) and measurement of the color difference (ΔE) before and after daylight exposure (80 MJ).
(§1) With a spectrophotometer, the color was measured on the Lab coordinate system, to calculate the color difference on the basis of the color before daylight exposure. More specifically, the color difference (ΔE) was calculated on the basis of the measured values (L1, a1, b1) before daylight exposure.

[2] = Dye stabilization effect under daylight exposure (Test Examples 6-91); parameters: key to Δ E: color difference ΔE in Lab vs. color before daylight exposure; key to Appearance (visual determination): ◯: no change; Δ: almost no change; x: change; details: photostabilizer 0.05 wt %, daylight exposure (80 MJ)
Description: For observation of the change of the appearance of each test sample (determination based on visual observation) and the measurement of color difference (ΔE) before and after daylight exposure (80 MJ), the test sample was prepared.
as §1

[3] = Stabilization effect on perfume under daylight exposure (Test Examples 92 to 181); parameters: key: ◯: no change; Δ: almost no change; x: change; details: daylight exposure (80 MJ)
Description: Each test sample was prepared for observation of the change of the odor of the test sample (determined by perfume coordinator) before and after daylight exposure (80 MJ).

[4] = Drug stabilization effect under daylight exposure (Test Examples 182 to 211); parameters: key to Appearance (visual determination): ◯: no change; Δ: almost no change; x: change; details: photostabilizer 0.05 wt %, daylight exposure (80 MJ); for Remaining ratio (%): liquid chromatography
Description: For observation of the change of the appearance of each test sample (determination based on visual observation) and the measurement of the remaining ratio by liquid chromatography before and after daylight exposure (80 MJ), the test sample was prepared.

[5] = dye Green 3 (Fast Green FCF) 0.001, sequestering agent 0.1 alone, photostabilizer 0
[6] = dye Yellow 5 (Sunset Yellow FCF) 0.0001, sequestering agent 0.03 alone, photostabilizer 0
[7] = dye Blue 1 (Brilliant Blue FCF) 0.0001 wt %
[8] = dye Green 3 (Fast Green FCF) 0.001 wt %
[9] = dye Red 227 (Acid Fuchsine D) 0.0001 wt %
[10] = dye Yellow 5 (Sunset Yellow FCF) 0.001 wt %
[11] = dyes Red 106 (Acid red) 0.00001 + Yellow 203 (Quinoline Yellow WS) 0.0001 wt %
[12] = dyes Red 213 (Rhodamine B) 0.00001 + Blue 1 (Brilliant Blue FCF) 0.00001 wt %
[13] = dyes Red 227 (Acid Fuchsine D) 0.0001 + Yellow 5 (Sunset Yellow FCF) 0.0001 wt %
[14] = dyes Red 401 (Violanin R) 0.0001 + Blue 1 (Brilliant Blue FCF) 0.00001 wt %
[15] = dyes Yellow 203 (Quinoline Yellow WS) 0.0001 + Yellow 5 (Sunset Yellow FCF) 0.0001 wt %
[16] = base perfume Fruity, photostabilizer 0.1 wt %
[17] = base perfume Muge, photostabilizer 0.05 wt %
[18] = base perfume Rose, photostabilizer 0.05 wt %
[19] = base perfume Spicy, photostabilizer 0.2 wt %
[20] = base perfume Woody, photostabilizer 0.1 wt %
[21] = natural perfume Jasmine oil, photostabilizer 0.05 wt %
[22] = natural perfume Lavender oil, photostabilizer 0.1 wt %
[23] = natural perfume Nelori oil, photostabilizer 0.1 wt %
[24] = natural perfume Rose oil, photostabilizer 0.05 wt %
[25] = natural perfume Ylang ylang oil, photostabilizer 0.2 wt %
[26] = synthetic perfume Citral, photostabilizer 0.1 wt %
[27] = synthetic perfume Limonene oil, photostabilizer 0.05 wt %
[28] = synthetic perfume Linalool, photostabilizer 0.05 wt %
[29] = synthetic perfume Linalyl acetate, photostabilizer 0.1 wt %
[30] = synthetic perfume Rose oxide, photostabilizer 0.2 wt %
[31] = drug Dipotassium glycyrrhizinate 0.05 wt %
[32] = drug L-ascorbic acid 2-glucoside 2.0 wt %
[33] = drug dibutylhydroxytoluene 0.01 wt %
[34] = drug dl-α-tocopherol 2-L-ascorbic acid phosphate diester potassium salt 0.01 wt %

Molecule: sodium polyphosphate
- Δ E [1, 5]: 1.75
- Δ E [1, 6]: 1.70

Molecule: Oc1nncc(N2CCCCC2)c1N1CCCCC1 [4,5-Dipipendino-3-hydroxypyridazine]
- Δ E ([1]; dyes Red 227 (Acid Fuchsine D) 0.0001 + Yellow 5 (Sunset Yellow FCF) 0.0001, no sequestering agent, photostabilizer blend amount 0.01): 1.12
- Δ E ([1]; dyes Red 227 (Acid Fuchsine D) 0.0001 + Yellow 5 (Sunset Yellow FCF) 0.0001, with ethylenediaminetetraacetate trisodium 0.02, photostabilizer blend amount 0.01): 0.68

Molecule: COc1ccc(C(=O)CC(=O)c2ccc(C(C)(C)C)cc2)cc1 [4-tert-Butyl-4′-methoxydibenzoylmethane, reference compound]
- Appearance (visual determination) [2, 7]: Δ
- Δ E [2, 7]: 1.49
- Appearance (visual determination) [2, 8]: Δ
- Δ E [2, 8]: 0.62
- Appearance (visual determination) [2, 9]: Δ
- Δ E [2, 9]: 0.95
- Appearance (visual determination) [2, 10]: Δ
- Δ E [2, 10]: 0.88
- Appearance (visual determination) [2, 11]: Δ
- Δ E [2, 11]: 1.02
- Appearance (visual determination) [2, 12]: Δ
- Δ E [2, 12]: 1.17
- Appearance (visual determination) [2, 13]: Δ
- Δ E [2, 13]: 0.80
- Appearance (visual determination) [2, 14]: Δ
- Δ E [2, 14]: 0.93
- Appearance (visual determination) [2, 15]: ◯
- Δ E [2, 15]: 0.48
- odor determination [3, 16]: Δ
- odor determination [3, 17]: Δ
- odor determination [3, 18]: Δ
- odor determination [3, 19]: Δ
- odor determination [3, 20]: Δ
- odor determination [3, 21]: Δ
- odor determination [3, 22]: Δ
- odor determination [3, 23]: Δ
- odor determination [3, 24]: Δ
- odor determination [3, 25]: Δ
- odor determination [3, 26]: Δ
- odor determination [3, 27]: Δ
- odor determination [3, 28]: Δ
- odor determination [3, 29]: Δ
- odor determination [3, 30]: Δ
- Appearance (visual determination) [4, 31]: Δ
- Remaining ratio (%) [4, 31]: 96.6%
- Appearance (visual determination) [4, 32]: Δ
- Remaining ratio (%) [4, 32]: 97.0%
- Appearance (visual determination) [4, 33]: Δ
- Remaining ratio (%) [4, 33]: 95.2%
- Appearance (visual determination) [4, 34]: Δ
- Remaining ratio (%) [4, 34]: 94.5%
- Appearance (visual determination) ([4]; drug salicylic acid 0.1 wt %): Δ
- Remaining ratio (%) ([4]; drug salicylic acid 0.1 wt %): 97.2%

Molecule: COc1cc(O)c(C(=O)c2ccccc2)cc1S(=O)(=O)[O-].[Na+] [2-Hydroxy-4-methoxybenzophenone-5-sulfonate sodium, reference compound]
- Appearance (visual determination) [2, 7]: Δ
- Δ E [2, 7]: 1.67
- Appearance (visual determination) [2, 8]: Δ
- Δ E [2, 8]: 0.74
- Appearance (visual determination) [2, 9]: Δ
- Δ E [2, 9]: 0.80
- Appearance (visual determination) [2, 10]: Δ
- Δ E [2, 10]: 0.78

Molecule: CCCCC(CC)COC(=O)/C=C/c1ccc(OC)cc1 (stereo not shown) [p-Methoxycinnamate octyl, reference compound]
- Appearance (visual determination) [2, 7]: x
- Δ E [2, 7]: 5.23
- Appearance (visual determination) [2, 8]: x
- Δ E [2, 8]: 1.64
- Appearance (visual determination) [2, 9]: x
- Δ E [2, 9]: 1.22
- Appearance (visual determination) [2, 10]: x
- Δ E [2, 10]: 1.56

Molecule: O=C([O-])CN(CCN(CC(=O)[O-])CC(=O)O)CC(=O)[O-].[Na+].[Na+].[Na+] [ethylenediaminetetraacetate trisodium]
- Δ E ([1]; dye Blue 1 (Brilliant Blue FCF) 0.001, sequestering agent 0.05 alone, photostabilizer 0): 8.32
- Δ E [1, 5]: 1.75
- Δ E ([1]; dye Red 227 (Acid Fuchsine D) 0.0001, sequestering agent 0.02 alone, photostabilizer 0): 1.40
- Δ E [1, 6]: 1.72
- Δ E ([1]; dyes Red 106 (Acid Red) 0.00001 + Yellow 5 (Sunset Yellow FCF) 0.0001, sequestering agent blend amount 0.02, photostabilizer 0): 4.26
- Δ E ([1]; dyes Red 227 (Acid Fuchsine D) 0.0001 + Yellow 5 (Sunset Yellow FCF) 0.0001, sequestering agent blend amount 0.02, photostabilizer 0): 1.55
- Δ E ([1]; dyes Red 401 (Violanin R) 0.0001 + Blue 1 (Brilliant Blue FCF) 0.00001, sequestering agent blend amount 0.03, photostabilizer 0): 3.02

Molecule: Oc1nncc(N2CCCCC2)c1N1CCCCC1 [4,5-Dipiperidino-33-hydroxy pyridazine]
- Δ E ([1]; dyes Red 401 (Violanin R) 0.0001 + Green 3 (Fast Green FCF) 0.00001, no sequestering agent, photostabilizer blend amount 0.02): 1.52
- Δ E ([1]; dyes Red 401 (Violanin R) 0.0001 + Green 3 (Fast Green FCF) 0.00001, with sodium metaphosphate 0.03, photostabilizer blend amount 0.02): 0.77

Molecule: COc1ccc(C(=O)c2ccccc2)c(O)c1 [2-Hydroxy-4-methoxybenzophenone, reference compound]
- Appearance (visual determination) [2, 7]: Δ
- Δ E [2, 7]: 1.76
- Appearance (visual determination) [2, 8]: Δ
- Δ E [2, 8]: 0.75
- Appearance (visual determination) [2, 9]: Δ
- Δ E [2, 9]: 0.71
- Appearance (visual determination) [2, 10]: Δ
- Δ E [2, 10]: 0.82
- Appearance (visual determination) [2, 11]: Δ
- Δ E [2, 11]: 1.11
- Appearance (visual determination) [2, 12]: Δ
- Δ E [2, 12]: 1.26
- Appearance (visual determination) [2, 13]: Δ
- Δ E [2, 13]: 0.88
- Appearance (visual determination) [2, 14]: Δ
- Δ E [2, 14]: 0.82
- Appearance (visual determination) [2, 15]: ◯
- Δ E [2, 15]: 0.52
- odor determination [3, 16]: Δ
- odor determination [3, 17]: Δ
- odor determination [3, 18]: Δ
- odor determination [3, 19]: Δ
- odor determination [3, 20]: Δ
- odor determination [3, 21]: Δ
- odor determination [3, 22]: Δ
- odor determination [3, 23]: Δ
- odor determination [3, 24]: Δ
- odor determination [3, 25]: Δ
- odor determination [3, 26]: Δ
- odor determination [3, 27]: Δ
- odor determination [3, 28]: Δ
- odor determination [3, 29]: Δ
- odor determination [3, 30]: Δ
- Appearance (visual determination) [4, 31]: Δ
- Remaining ratio (%) [4, 31]: 97.8%
- Appearance (visual determination) [4, 32]: Δ
- Remaining ratio (%) [4, 32]: 97.8%
- Appearance (visual determination) [4, 33]: Δ
- Remaining ratio (%) [4, 33]: 95.2%
- Appearance (visual determination) [4, 34]: Δ
- Remaining ratio (%) [4, 34]: 95.4%
- Appearance (visual determination) ([4]; drug salicylic acid 0.1 wt %): Δ
- Remaining ratio (%) ([4]; drug salicylic acid 0.1 wt %): 98.2%

Molecule: OCCN(CCO)c1cnnc(O)c1 [5-bis(2-hydroxyethyl)amino-3-hydroxypyridazine]
- Appearance (visual determination) [2, 7]: ◯
- Δ E [2, 7]: 1.29
- Appearance (visual determination) [2, 8]: ◯
- Δ E [2, 8]: 0.62
- Appearance (visual determination) [2, 9]: ◯
- Δ E [2, 9]: 0.55
- Appearance (visual determination) [2, 10]: ◯
- Δ E [2, 10]: 0.65
- Appearance (visual determination) [2, 11]: ◯
- Δ E [2, 11]: 0.85
- odor determination [3, 17]: ◯
- odor determination [3, 21]: ◯
- odor determination [3, 30]: ◯

Molecule: OCCNc1ccc(NCCO)nn1 [3,6-Bis(2-hydroxyethylamino) pyridazine]
- Δ E ([1]; dyes Yellow 203 (Quinoline Yellow WS) 0.0001 + Yellow 5 (Sunset Yellow FCF) 0.0001, no sequestering agent, photostabilizer blend amount 0.02): 0.88
- Δ E ([1]; dyes Yellow 203 (Quinoline Yellow WS) 0.0001 + Yellow 5 (Sunset Yellow FCF) 0.0001, with sodium metaphosphate 0.01, photostabilizer blend amount 0.02): 0.55
